{"source": "ChEMBL document CHEMBL6109079", "about": "“Discovery of novel pyrimidinetrione derivatives as DprE1 inhibitors with potent antimycobacterial activities” (Eur J Med Chem, 2025)", "key": {"[1]": {"test": "Selectivity index, ratio of CC50 for cytotoxicity against human THP-1 cells to MIC50 for antibacterial activity against Mycobacterium tuberculosis H37Ra", "format": "toxicity, cell-based", "details": "read-out: Selectivity Index"}, "[2]": {"test": "Cytotoxicity against human THP-1 cells assessed as reduction in cell viability incubated for 24 hrs by CCK-8 assay", "format": "toxicity, cell-based"}, "[3]": {"tested_on": "Mycobacterium tuberculosis", "test": "Antibacterial activity against Mycobacterium tuberculosis H37Ra assessed as inhibition of bacterial growth at 50 uM incubated for 3 weeks by absorbance based microplate reader relative to control", "format": "functional", "details": "504 h"}, "[4]": {"test": "Inhibition of DprE1 (unknown origin) preincubated with FAD followed by compound addition and measured after 2 mins by fluorescence based microplate reader", "set-up": "species or system Bacteria"}, "[5]": {"test": "Binding affinity to recombinant DprE1 (unknown origin) assessed as dissociation constant incubated for 10 mins by MST analysis", "set-up": "species or system Bacteria"}, "[6]": {"test": "Cytotoxicity against human THP-1 cells assessed as cell viability at 200 uM incubated for 24 hrs by CCK-8 assay relative to control", "format": "toxicity, cell-based", "details": "read-out: Activity"}, "[7]": {"tested_on": "Mycobacterium tuberculosis", "test": "Antibacterial activity against Mycobacterium tuberculosis H37Ra assessed as inhibition of bacterial growth at 10 uM incubated for 3 weeks by absorbance based microplate reader relative to control", "format": "functional", "details": "504 h"}, "[8]": {"tested_on": "Mycobacterium tuberculosis", "test": "Antibacterial activity against Mycobacterium tuberculosis H37Ra assessed as inhibition of bacterial growth incubated for 1 weeks by absorbance based microplate reader", "format": "functional", "details": "168 h"}, "[9]": {"tested_on": "Mycobacterium tuberculosis", "test": "Antibacterial activity against Mycobacterium tuberculosis H37Ra infected in PMA-differentiated human THP-1 cells assessed as reduction in colony forming units measured after 3 weeks by absorbance based assay", "format": "functional, organism-based", "details": "dose 10-100 µM"}, "[10]": {"tested_on": "Mycobacterium tuberculosis", "test": "Antibacterial activity against Mycobacterium tuberculosis H37Rv assessed as inhibition of bacterial growth at 10 uM incubated for 3 weeks by absorbance based microplate reader relative to control", "format": "functional", "details": "504 h"}, "[11]": {"tested_on": "Mycobacterium tuberculosis", "test": "Antibacterial activity against Mycobacterium tuberculosis H37Rv infected in PMA-differentiated human THP-1 cells assessed as reduction in colony forming units at 100 uM measured after 3 weeks by absorbance based assay", "format": "functional, organism-based"}}, "note": "Calls of active or inactive are those of the source. The calls are words filed in the database; no cut-off is given here."}
{"compound": "O=C1NC(=O)N(C2CC2)C(=O)/C1=C/NNC(=O)c1ccncc1", "values": [{"measurement": "selectivity ratio", "setting": "[1]", "result": "> 179"}, {"measurement": "CC50 at 24 h", "setting": "[2]", "result": "> 200", "unit": "µM"}, {"measurement": "inhibition at 50 µM", "setting": "[3]", "result": 100, "unit": "%"}, {"measurement": "IC50", "setting": "[4]", "result": 20.3, "unit": "µM"}, {"measurement": "Kd", "setting": "[5]", "result": 2.23, "unit": "µM"}, {"measurement": "viability at 24 h, 200 µM", "setting": "[6]", "result": 100, "unit": "%"}, {"measurement": "inhibition at 10 µM", "setting": "[7]", "result": 100, "unit": "%"}, {"measurement": "MIC50", "setting": "[8]", "result": 1.12, "unit": "µM"}, {"measurement": "Activity", "setting": "[9]", "result": "Dose-dependent-effect"}, {"measurement": "inhibition at 10 µM", "setting": "[10]", "result": 100, "unit": "%"}]}
{"compound": "O=C1NC(=O)N(Cc2ccccc2)C(=O)/C1=C/NNC(=O)c1ccnc2ccccc12", "values": [{"measurement": "IC50", "setting": "[4]", "result": 13.8, "unit": "µM"}]}
{"compound": "CC(=O)NN/C=C1\\C(=O)NC(=O)N(Cc2ccccc2)C1=O", "values": [{"measurement": "IC50", "setting": "[4]", "result": "> 100", "unit": "µM"}]}
{"compound": "Cc1ccc(S(=O)(=O)C(=O)NN/C=C2\\C(=O)NC(=O)N(Cc3ccccc3)C2=O)cc1", "values": [{"measurement": "IC50", "setting": "[4]", "result": 62, "unit": "µM"}]}
{"compound": "O=C1NC(=O)N(Cc2ccccc2)C(=O)/C1=C/NNC(=O)c1cccc2ncccc12", "values": [{"measurement": "IC50", "setting": "[4]", "result": 12.6, "unit": "µM"}]}
{"compound": "C#CCN1C(=O)NC(=O)/C(=C\\NNC(=O)c2ccncc2)C1=O", "values": [{"measurement": "selectivity ratio", "setting": "[1]", "result": "> 187"}, {"measurement": "CC50 at 24 h", "setting": "[2]", "result": "> 200", "unit": "µM"}, {"measurement": "inhibition at 50 µM", "setting": "[3]", "result": 100, "unit": "%"}, {"measurement": "IC50", "setting": "[4]", "result": 12.7, "unit": "µM"}, {"measurement": "Kd", "setting": "[5]", "result": 0.068, "unit": "µM"}, {"measurement": "viability at 24 h, 200 µM", "setting": "[6]", "result": 100, "unit": "%"}, {"measurement": "inhibition at 10 µM", "setting": "[7]", "result": 100, "unit": "%"}, {"measurement": "Activity", "setting": "[11]", "result": "Active"}, {"measurement": "MIC50", "setting": "[8]", "result": 1.07, "unit": "µM"}, {"measurement": "Activity", "setting": "[9]", "result": "Dose-dependent-effect; Best Bactericidal Effect Observed"}, {"measurement": "inhibition at 10 µM", "setting": "[10]", "result": 100, "unit": "%"}]}
{"compound": "C=CCN1C(=O)NC(=O)/C(=C\\NNC(=O)c2ccnc3ccccc23)C1=O", "values": [{"measurement": "IC50", "setting": "[4]", "result": 12.8, "unit": "µM"}]}
{"compound": "CC(C)(C)C(=O)NN/C=C1\\C(=O)NC(=O)N(Cc2ccccc2)C1=O", "values": [{"measurement": "IC50", "setting": "[4]", "result": "> 100", "unit": "µM"}]}
{"compound": "C=CCN1C(=O)NC(=O)/C(=C\\NNC(=O)c2ccccc2)C1=O", "values": [{"measurement": "IC50", "setting": "[4]", "result": 15.3, "unit": "µM"}]}
{"compound": "CC(C)N1C(=O)NC(=O)/C(=C\\NNC(=O)c2ccncc2)C1=O", "values": [{"measurement": "selectivity ratio", "setting": "[1]", "result": "> 114"}, {"measurement": "CC50 at 24 h", "setting": "[2]", "result": "> 200", "unit": "µM"}, {"measurement": "inhibition at 50 µM", "setting": "[3]", "result": 100, "unit": "%"}, {"measurement": "IC50", "setting": "[4]", "result": 47.4, "unit": "µM"}, {"measurement": "viability at 24 h, 200 µM", "setting": "[6]", "result": 100, "unit": "%"}, {"measurement": "inhibition at 10 µM", "setting": "[7]", "result": 100, "unit": "%"}, {"measurement": "MIC50", "setting": "[8]", "result": 1.75, "unit": "µM"}, {"measurement": "inhibition at 10 µM", "setting": "[10]", "result": 100, "unit": "%"}]}
{"compound": "CCOCC(=O)NN/C=C1\\C(=O)NC(=O)N(Cc2ccccc2)C1=O", "values": [{"measurement": "IC50", "setting": "[4]", "result": "> 100", "unit": "µM"}]}
{"compound": "CN1C(=O)NC(=O)/C(=C\\NNC(=O)c2ccncc2)C1=O", "values": [{"measurement": "selectivity ratio", "setting": "[1]", "result": "> 143"}, {"measurement": "CC50 at 24 h", "setting": "[2]", "result": "> 200", "unit": "µM"}, {"measurement": "inhibition at 50 µM", "setting": "[3]", "result": 100, "unit": "%"}, {"measurement": "IC50", "setting": "[4]", "result": 50, "unit": "µM"}, {"measurement": "viability at 24 h, 200 µM", "setting": "[6]", "result": 100, "unit": "%"}, {"measurement": "inhibition at 10 µM", "setting": "[7]", "result": 100, "unit": "%"}, {"measurement": "MIC50", "setting": "[8]", "result": 1.4, "unit": "µM"}, {"measurement": "inhibition at 10 µM", "setting": "[10]", "result": 100, "unit": "%"}]}
{"compound": "O=C1NC(=O)N(C2CCC2)C(=O)/C1=C/NNC(=O)c1ccncc1", "values": [{"measurement": "selectivity ratio", "setting": "[1]", "result": "> 84.2"}, {"measurement": "CC50 at 24 h", "setting": "[2]", "result": "> 200", "unit": "µM"}, {"measurement": "inhibition at 50 µM", "setting": "[3]", "result": 100, "unit": "%"}, {"measurement": "IC50", "setting": "[4]", "result": 18.1, "unit": "µM"}, {"measurement": "viability at 24 h, 200 µM", "setting": "[6]", "result": 100, "unit": "%"}, {"measurement": "inhibition at 10 µM", "setting": "[7]", "result": 100, "unit": "%"}, {"measurement": "MIC50", "setting": "[8]", "result": 2.37, "unit": "µM"}, {"measurement": "inhibition at 10 µM", "setting": "[10]", "result": 100, "unit": "%"}]}
{"compound": "CC[C@@H](C)N1C(=O)NC(=O)/C(=C\\NNC(=O)c2ccccc2)C1=O", "values": [{"measurement": "IC50", "setting": "[4]", "result": 13.4, "unit": "µM"}]}
{"compound": "COCC(=O)NN/C=C1\\C(=O)NC(=O)N(Cc2ccccc2)C1=O", "values": [{"measurement": "IC50", "setting": "[4]", "result": "> 100", "unit": "µM"}]}
{"compound": "CC[C@@H](C)N1C(=O)NC(=O)/C(=C\\NNC(=O)c2ccncc2)C1=O", "values": [{"measurement": "selectivity ratio", "setting": "[1]", "result": "> 68.1"}, {"measurement": "CC50 at 24 h", "setting": "[2]", "result": "> 200", "unit": "µM"}, {"measurement": "inhibition at 50 µM", "setting": "[3]", "result": 100, "unit": "%"}, {"measurement": "IC50", "setting": "[4]", "result": 50.4, "unit": "µM"}, {"measurement": "viability at 24 h, 200 µM", "setting": "[6]", "result": 100, "unit": "%"}, {"measurement": "inhibition at 10 µM", "setting": "[7]", "result": 100, "unit": "%"}, {"measurement": "MIC50", "setting": "[8]", "result": 2.5, "unit": "µM"}, {"measurement": "inhibition at 10 µM", "setting": "[10]", "result": 100, "unit": "%"}]}
{"compound": "O=C1NC(=O)N(C2CC2)C(=O)/C1=C/NNC(=O)c1cccc2ncccc12", "values": [{"measurement": "IC50", "setting": "[4]", "result": 15.2, "unit": "µM"}]}
{"compound": "CC(=O)Nc1ccc(C(=O)NN/C=C2\\C(=O)NC(=O)N(Cc3ccccc3)C2=O)cc1", "values": [{"measurement": "IC50", "setting": "[4]", "result": 27.6, "unit": "µM"}]}
{"compound": "COc1cccc(C(=O)NN/C=C2\\C(=O)NC(=O)N(Cc3ccccc3)C2=O)c1", "values": [{"measurement": "IC50", "setting": "[4]", "result": 6.53, "unit": "µM"}]}
{"compound": "O=C1NC(=O)N(Cc2ccccc2)C(=O)/C1=C/NNC(=O)c1ccc(O)cc1", "values": [{"measurement": "IC50", "setting": "[4]", "result": 8.56, "unit": "µM"}]}
{"compound": "CC(=O)NC[C@H]1CN(c2ccc(N3CCOCC3)c(F)c2)C(=O)O1", "note": "[LINEZOLID]", "values": [{"measurement": "selectivity ratio", "setting": "[1]", "result": "> 120"}, {"measurement": "MIC50", "setting": "[8]", "result": 1.67, "unit": "µM"}]}
{"compound": "O=C1NC(=O)C(=CNNC(=O)c2ccncc2)C(=O)N1", "values": [{"measurement": "selectivity ratio", "setting": "[1]", "result": "> 112"}, {"measurement": "CC50 at 24 h", "setting": "[2]", "result": "> 200", "unit": "µM"}, {"measurement": "inhibition at 50 µM", "setting": "[3]", "result": 100, "unit": "%"}, {"measurement": "IC50", "setting": "[4]", "result": "> 100", "unit": "µM"}, {"measurement": "viability at 24 h, 200 µM", "setting": "[6]", "result": 100, "unit": "%"}, {"measurement": "inhibition at 10 µM", "setting": "[7]", "result": 100, "unit": "%"}, {"measurement": "MIC50", "setting": "[8]", "result": 1.78, "unit": "µM"}, {"measurement": "inhibition at 10 µM", "setting": "[10]", "result": 100, "unit": "%"}]}
{"compound": "O=C1NC(=O)N(Cc2ccccc2)C(=O)/C1=C/NNC(=O)c1cccc([N+](=O)[O-])c1", "values": [{"measurement": "IC50", "setting": "[4]", "result": 42.5, "unit": "µM"}]}
{"compound": "O=C1NC(=O)N(CCc2ccccc2)C(=O)/C1=C/NNC(=O)c1cccnc1", "values": [{"measurement": "IC50", "setting": "[4]", "result": 24.8, "unit": "µM"}]}
